Test results from BindingDB's records for doi:10.1016/S0960-894X(01)80156-6 (1994).
Where a SMILES comes first, the peptide text is derived from it. Bridges are numbered along the chain shown (N, C = ends). [ ]: non-standard residue; d: D form. Aoc = NCCCCCCCC(=O)O; Ava = NCCCCC(=O)O

biological target: Endothelin A receptor (Oryctolagus cuniculus); test: Binding affinity against Endothelin A receptor in rabbit renal artery vascular smooth muscle membrane (ET-A)

| Compound | IC50 |
| --- | --- |
| CC[C@H](C)[C@H](NC(=O)[C@H](CC(=O)O)NC(=O)[C@H](CC(C)C)NC(=O)[C@H](Cc1c[nH]cn1)NC(=O)[C@@H]1CSSC[C@H](N)C(=O)N[C@@H](CO)C(=O)N[C@@H](CO)C(=O)N[C@@H](C(C)C)C(=O)N[C@@H](Cc2ccc(O)cc2)C(=O)N[C@@H](Cc2ccccc2)C(=O)N1)C(=O)N[C@H](C(=O)N[C@@H](Cc1c[nH]c2ccccc12)C(=O)O)[C@@H](C)CC [Trp-Ile-Ile-Asp-Leu-Hisc(Cys-Ser-Ser-Val-Tyr-Phe-Cys)] (H-CSSVYFCHLDIIW-OH; disulfide 1-7) | 2000 nM |
| CC[C@H](C)[C@H](NC(=O)[C@H](CC(=O)O)NC(=O)[C@H](CC(C)C)NC(=O)[C@H](Cc1c[nH]cn1)NC(=O)[C@@H]1CSSC[C@H](N)C(=O)N[C@@H](CO)C(=O)NCCCCC(=O)N[C@@H](C(C)C)C(=O)N[C@@H](Cc2ccc(O)cc2)C(=O)N[C@@H](Cc2ccccc2)C(=O)N1)C(=O)N[C@H](C(=O)N[C@@H](Cc1c[nH]c2ccccc12)C(=O)O)[C@@H](C)CC [Trp-Ile-Ile-Asp-Leu-Hisc(Cys-Ser-Apa-Val-Tyr-Phe-Cys)] (H-CS[Ava]VYFCHLDIIW-OH; disulfide 1-7) | 2500 nM |
| CC[C@H](C)[C@H](NC(=O)[C@H](CC(=O)O)NC(=O)[C@H](CC(C)C)NC(=O)[C@H](Cc1cnc[nH]1)NC(=O)[C@@H]1CSSC[C@H](N)C(=O)N[C@@H](CO)C(=O)NCCCCCCCC(=O)N[C@@H](C(C)C)C(=O)N[C@@H](Cc2ccc(O)cc2)C(=O)N[C@@H](Cc2ccccc2)C(=O)N1)C(=O)N[C@H](C(=O)N[C@@H](Cc1c[nH]c2ccccc12)C(=O)O)[C@@H](C)CC [Trp-Ile-Ile-Asp-Leu-Hisc(Cys-Ser-Aoa-Val-Tyr-Phe-Cys)] (H-CS[Aoc]VYFCHLDIIW-OH; disulfide 1-7) | 1800 nM |
| CC[C@H](C)[C@H](NC(=O)[C@H](CC(=O)O)NC(=O)[C@H](CC(C)C)NC(=O)[C@H](Cc1c[nH]cn1)NC(=O)[C@@H]1CSSC[C@H](N)C(=O)N[C@@H](CO)C(=O)N[C@@H](C(C)C)C(=O)N[C@@H](Cc2ccc(O)cc2)C(=O)N[C@@H](Cc2ccccc2)C(=O)N1)C(=O)N[C@H](C(=O)N[C@@H](Cc1c[nH]c2ccccc12)C(=O)O)[C@@H](C)CC [Trp-Ile-Ile-Asp-Leu-Hisc(Cys-Ser-Val-Tyr-Phe-Cys)] (H-CSVYFCHLDIIW-OH; disulfide 1-6) | 3800 nM |
